US12459939B2 (SHANGHAI RINGENE BIOPHARMA CO., LTD., priority 2019, dated 2025)

Key:
[1] = target: T1, BRD4-BD1 (Homo sapiens, UniProt O60885); assay: BRD4 AlphaScreen determination (BD1); assay type: binding; conditions: AlphaScreen, protein binding inhibition; read-out: BRD4-BD1 IC50
T1 construct: purchased ReactionBiologyCorp; (RBC)
Protocol: (§1) (1) 1× Assay buffer was prepared according to the kit requirements of ReactionBiologyCorp. (RBC). (2) Compound concentration gradient preparation: the test compounds were tested at final concentrations starting at 10 μM, with 10 concentrations at 3-fold dilution and single well test was set for each concentration. The positive control compound(+)-JQ-1 was tested at final concentrations starting at 1 μM, with 10 concentrations at 3-fold dilution, and duplicated well test was set for each concentration. The solution was gradient diluted to the corresponding 1000-fold final concentration in a 384-well Source plate, and then 20 nL of the solution was transferred to the 384-well reaction plate with Echo550 to be measured. 20 nL of 100% DMSO was transferred to the Max well, and the highest concentration of the positive compounds were transferred to the Min wells. […] (6) 5 μL of 4× peptide solution was added to each well of the reaction plate, centrifuged at 1000 rpm for 1 min. (7) 10 μL of the assay solution was added, centrifuged at 1000 rpm for 60 seconds, the solution was mixed with gentle shaking, and incubated at room temperature for 60 minutes. (8) Reading with EnVision. (9) The IC50 values of the compounds for protein binding inhibition was obtained by fitting the dose-effect curve with the analytical software GraphPad Prism 5. (See Table 1 for specific values)

[2] = target: T2, BRD4-BD2 (Homo sapiens, UniProt O60885); assay: BRD4 AlphaScreen determination (BD2); assay type: binding; conditions: AlphaScreen, protein binding inhibition; read-out: BRD4-BD2 IC50
T2 construct: purchased ReactionBiologyCorp; (RBC)
Protocol: as §1

[3] = system: MV4-11 cells; assay: Inhibition of proliferation of MV4-11 cells (CellTiter-Glo); assay type: cell-based; conditions: Homo sapiens, 72 h
Protocol: Specific experimental steps: 1) Day 0: 96 inoculated cells were digested with trypsin and suspended in cell culture medium, the cell density was detected by an automatic cell counter and the cells were diluted with the culture medium to a suitable density, 100 μL of cell suspension was added to the 96-well plate, and the cell-free medium was used as a control well, and the wells were incubated in a 37° C., 5% CO2 cell incubator overnight; 2) Day 1: A total of 8 concentrations of the compound to be tested in the drug-treated cells were tested at 3-fold dilution, 10 μM was the starting assay concentration of the compound to be tested. Specific steps: 200× compound mother liquor was prepared, the compound was diluted with culture medium to a final concentration of […], that is, 3 μL of 200× compound was added to 197 μL of culture medium, 50 μL diluted compound was added to each well of the 96-well plate, and placed at 37° C., 5% CO2 cell culture incubator for 72 h; 3) Day 4: Cell viability detection: 96-well cell plate was first equilibrated to room temperature, 40 μL of CellTiter-Glo® reagent was added to each well, mixed on a shaker for 2 minutes to fully lyse the cells, incubated at room temperature for 10 minutes to stabilize the luminescence signal, and the luminescence value was read by the Envision microplate reader; 4) data processing was performed by GraphPad Prism 5.0 software to analyze the data, and nonlinear S-curve regression was used to fit the data to obtain a dose-effect curve, and from which the ICso value was calculated. Inhibition rate %=(DMSO treated cell wells−compound treated cell wells)/(DMSO treated cell wells−cell free medium wells)×100. The ICso value was obtained by the four-parameter regression method using the random software in the microplate reader. (See Table 2 for specific values)

IC50 [1] [nM] | IC50 [2] [nM] | IC50 [3] [nM] | SMILES
81 | < 0.5 | 33.3 | Cc1cc(F)cc(C)c1Oc1ccc(C(C)(C)O)cc1-c1cn(C)c(=O)c2cc(C(=O)NCC#N)[nH]c12 [Embodiment 15, N-(cyanomethyl)-7-(2-(4-fluoro-2,6-dimethylphenoxy)-5-(2-hydroxyprop-2-yl)phenyl)-5-methyl-4-oxo-4,5-dihydro-1H-pyrrolo[3,2-c] pyridine-2-amide]
 |  | < 1.5 | Cc1cc(F)cc(C)c1Oc1ccc(C(C)(C)O)cc1-c1cn(C)c(=O)c2cc(C(=O)NCCCC#Cc3cccc4c3CN(C3CCC(=O)NC3=O)C4=O)[nH]c12 (centres unmarked) [Embodiment 3, N-(5-(2-(2,6-dioxopiperidin-3-yl)-1-oxoisoindolin-4-yl)pent-4-yn-1-yl)-7-(2-(4-fluoro-2,6-dimethylphenoxy)-5-(2-hydroxyprop-2-yl)phenyl)-5-methyl-4-oxo-4,5-dihydro-1H-pyrrolo[3,2-c]pyridine-2-amide]
 |  | < 1.5 | Cc1cc(F)cc(C)c1Oc1ccc(C(C)(C)O)cc1-c1cn(C)c(=O)c2cc(C(=O)NCCCCCc3cccc4c3CN(C3CCC(=O)NC3=O)C4=O)[nH]c12 (centres unmarked) [Embodiment 4, N-(5-(2-(2,6-dioxopiperidin-3-yl)-1-oxoisoindolin-4-yl)pentyl)-7-(2-(4-fluoro-2,6-dimethylphenoxy)-5-(2-hydroxyprop-2-yl)phenyl)-5-methyl-4-oxo-4,5-dihydro-1H-pyrrolo[3,2-c]pyridine-2-amide]
 |  | < 1.5 | Cc1cc(F)cc(C)c1Oc1ccc(C(C)(C)O)cc1-c1cn(C)c(=O)c2cc(C(=O)NCCCCNC(=O)COc3cccc4c3C(=O)N(C3CCC(=O)NC3=O)C4=O)[nH]c12 (centres unmarked) [Embodiment 5, N-(4-(2-((2-(2,6-dioxopiperidin-3-yl)-1,3-dioxoisoindolin-4-yl)oxo)acetamido)butyl)-7-(2-(4-fluoro-2,6-dimethylphenoxy)-5-(2-hydroxyprop-2-yl)phenyl)-5-methyl-4-oxo-4,5-dihydro-1H-pyrrolo[3,2-c]pyridine-2-amide]
79 | < 0.5 | 6.6 | Cc1cc(F)cc(C)c1Oc1ccc(C(C)(C)O)cc1-c1cn(C)c(=O)c2cc(C(=O)NC(C)C)[nH]c12 [Embodiment 13, 7-(2-(4-fluoro-2,6-dimethylphenoxy)-5-(2-hydroxyprop-2-yl)phenyl)-N-isopropyl-5-methyl-4-oxo-4,5-dihydro-1H-pyrrolo[3,2-c]pyridine-2-amide]
93 | < 0.5 | 7.95 | Cc1cc(F)cc(C)c1Oc1ccc(C(C)(C)O)cc1-c1cn(C)c(=O)c2cc(C(=O)NC3CC3)[nH]c12 [Embodiment 16, N-cyclopropyl-7-(2-(4-fluoro-2,6-dimethylphenoxy)-5-(2-hydroxyprop-2-yl)phenyl)-5-methyl-4-oxo-4,5-dihydro-1H-pyrrolo[3,2-c]pyridine-2-amide]
292 | 2.8 | 147 | Cc1cc(F)cc(C)c1Oc1ccc(C(C)(C)O)cc1-c1cn(C)c(=O)c2cc(C(=O)N3CC(F)(F)C3)[nH]c12 [Embodiment 19, 2-(3,3-difluoroazetidine-1-carbonyl)-7-(2-(4-fluoro-2,6-dimethylphenoxy)-5-(2-hydroxyprop-2-yl)phenyl)-5-methyl-1,5-dihydro-4H-pyrrolo[3,2-c]pyridin-4-one]
58 | 0.69 | 19.8 | Cc1cc(F)cc(C)c1Oc1ccc(C(C)(C)O)cc1-c1cn(C)c(=O)c2cc(C(=O)NCCS(C)(=O)=O)[nH]c12 [Embodiment 10, 7-(2-(4-fluoro-2,6-dimethylphenoxy)-5-(2-hydroxyprop-2-yl)phenyl)-N-(2-methylsulfonyl)-4-oxo-4,5-dihydro-1H-pyrrolo pyridine-2-amide]
50 | < 0.5 | 12.7 | Cc1cc(F)cc(C)c1Oc1ccc(C(C)(C)O)cc1-c1cn(C)c(=O)c2cc(C(=O)NCC3CC3)[nH]c12 [Embodiment 12, N-(cyclopropylmethyl)-7-(2-(4-fluoro-2,6-dimethylphenoxy)-5-(2-hydroxyprop-2-yl)phenyl)-5-methyl-4-oxo-4,5-dihydro-1H-pyrrolo[3,2-c]pyridine-2-amide]
 |  | < 1.5 | CN1C(=O)C(C)(C)Oc2c(-c3cn(C)c(=O)c4cc(C(=O)NCCOCCOCCOCCC(=O)Nc5cccc6c5C(=O)N(C5CCC(=O)NC5=O)C6=O)[nH]c34)cc(S(C)(=O)=O)cc21 (centres unmarked) [Embodiment 7, N-(2-(2-(2-(3-((2-(2,6-dioxopiperidin-3-yl)-1,3-dioxoisoindolin-4-yl)amino)-3-oxo-n-propoxy)ethoxy)ethoxy)ethyl)-5-methyl-4-oxo-7-(2,2,4-trimethyl-6-(methylsulfonyl)-3-oxo-3,4-dihydro-2H-benzo[b] [1,4]oxazin-8-yl)-4,5-dihydro-1H-pyrrolo[3,2-c]pyridine-2-amide]
219 | < 0.5 | 31.3 | Cc1cc(F)cc(C)c1Oc1ccc(C(C)(C)O)cc1-c1cn(C)c(=O)c2cc(C(=O)NCC(F)(F)F)[nH]c12 [Embodiment 14, 7-(2-(4-fluoro-2,6-dimethylphenoxy)-5-(2-hydroxyprop-2-yl)phenyl)-5-methyl-4-oxo-N-(2,2,2-trifluoroethyl)-4,5-dihydro-1H-pyrrolo[3,2-c]pyridine-2-amide]
98 | < 0.51 | 4.8 | Cc1cc(F)cc(C)c1Oc1ccc(C(C)(C)O)cc1-c1cn(C)c(=O)c2cc(C(=O)NC(CF)CF)[nH]c12 [Embodiment 20, N-(1,3-difluoropropyl-2-yl)-7-(2-(4-fluoro-2,6-dimethylphenoxy)-5-(2-hydroxyprop-2-yl)phenyl)-5-methyl-4-oxo-4,5-dihydro-1H-pyrrolo[3,2-c]pyridine-2-amide]
 |  | 10.2 | Cc1cc(F)cc(C)c1Oc1ccc(C(C)(C)O)cc1-c1cn(C)c(=O)c2cc(C(=O)NCCCOCCOCCOCCCNc3cccc4c3C(=O)N(C3CCC(=O)NC3=O)C4=O)[nH]c12 (centres unmarked) [Embodiment 6, N-(3-(2-(2-(3-((2-(2,6-dioxopiperidin-3-yl)-1,3-dioxoisoindolin-4-yl)amino)propoxy)ethoxy)ethoxy)propyl)-7-(2-(4-fluoro-2,6-dimethylphenoxy)-5-(2-hydroxyprop-2-yl)phenyl)-5-methyl-4-oxo-4,5-dihydro-1H-pyrrole[3,2-c]pyridine-2-amide]
233 | 7.4 | 248 | Cc1cc(F)cc(C)c1Oc1ccc(C(C)(C)O)cc1-c1cn(C)c(=O)c2cc(C(=O)N3CCC3)[nH]c12 [Embodiment 17, 2-(azetidine-1-carbonyl)-7-(2-(4-fluoro-2,6-dimethylphenoxy)-5-(2-hydroxyprop-2-yl)phenyl)-5-methyl-1,5-dihydro-4H-pyrrolo[3,2-c] pyridin-4-one]
36 | 1.2 | 64 | CCNC(=O)c1cc2c(=O)n(C)cc(-c3cc(S(C)(=O)=O)cc4c3OC(C)(C)C(=O)N4C)c2[nH]1 [Embodiment 2, N-ethyl-5-methyl-4-oxo-7-(2,2,4-trimethyl-6-(methylsulfonyl)-3-oxo-3,4-dihydro-2H-benzo[b][1,4]oxazin-8-yl)-4,5-dihydro-1H-pyrrolo[3,2-c]pyridine-2-amide]
37 | 0.51 | 19.8 | COCCNC(=O)c1cc2c(=O)n(C)cc(-c3cc(C(C)(C)O)ccc3Oc3c(C)cc(F)cc3C)c2[nH]1 [Embodiment 9, 7-(2-(4-fluoro-2,6-dimethylphenoxy)-5-(2-hydroxyprop-2-yl)phenyl)-N-(2-methoxyethyl)-5-methyl-4-oxo-4,5-dihydro-1H-pyrrolo[3,2-c]pyridine-2-amide]
